The results in this text go back to paper PMC5374206, “Anti-bacterial and Anti-biofilm Evaluation of Thiazolopyrimidinone Derivatives Targeting the Histidine Kinase YycG Protein of Staphylococcus epidermidis” (Frontiers in Microbiology, 2017).

≈ marks a conversion by molar mass, not a printed value.

The target in one data set is T1, YycG′ protein (Staphylococcus epidermidis, UniProt Q5HK19).
T1 construct: made in house; host or cells: E. coli BL21(DE3)
T1 sequence (Q5HK19 384-602 limits assumed): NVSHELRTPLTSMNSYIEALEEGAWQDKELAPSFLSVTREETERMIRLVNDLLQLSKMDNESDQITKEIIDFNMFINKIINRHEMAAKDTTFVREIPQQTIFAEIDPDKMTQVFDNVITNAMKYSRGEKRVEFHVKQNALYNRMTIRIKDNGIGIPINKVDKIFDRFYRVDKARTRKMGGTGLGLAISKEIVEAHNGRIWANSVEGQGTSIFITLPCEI
The experiment in a line: Inhibition of YycG′ autophosphorylation (Kinase-Glo Luminescent Kinase Assay). As to conditions: 4 μM ATP; for inhibition of the enzymatic activity of YycG′ protein: 100 μM derivative, 2 μg YycG′ protein; for IC50: Kinase-Glo, 2 μg YycG′, read-out: IC50 (inhibition of autophosphorylation of recombinant YycG′). The format is biochemical. The method, then: The construction of the recombinant plasmid pET28a-YycG′ (containing the HATPase_c and HisKA domains of YycG) has been previously described (Liu et al., [2014]). After being used to transform E. coli strain BL21(DE3), this recombinant plasmid was induced to express YycG′ protein by 0.4 mM isopropyl-1-thio-β-D-galactopyranoside at 21°C for 12 h. Then, the bacterial cells were disrupted by sonication and centrifuged, the supernatant was purified by Ni–NTA agarose (Qiagen, Los Angeles, CA, USA). The inhibitory activities of the compound 5 derivatives on the ATPase activity of the YycG′ protein were measured using the Kinase-Glo™ Luminescent Kinase Assay (Promega, Madison, WI, USA). Briefly, 2 μg purified YycG′ protein was pre-incubated with a series of dilutions of the derivatives in reaction buffer [40 mM Tris (pH 7.5), 20 mM MgCl2 and 0.1 mg/ml BSA] at room temperature for 30 min, 4 μM ATP was added and incubated for 30 min at room temperature, then Kinase-Glo™ Reagent was added to detect the remaining amount of ATP, as reflected by luminescence intensity (RLU). In parallel, YycG′ protein with no addition of the derivatives was used as the control and ATP only was used as a blank. The rate of inhibition of protein phosphorylation (Rp) by the derivatives was calculated by the following equation: Rp = RLU(YycG^′+derivative+ATP+Kinase−Glo™)−RLU(YycG^′+ATP+Kinase−Glo™)/RLU(ATP+Kinase−Glo™)−RLU(YycG^′+ATP+Kinase−Glo™) × 100 IC50 (the concentration resulting in 50% inhibition of YycG′ protein autophosphorylation) was obtained by using Origin v7.0 software (OriginLab, Northampton, USA).
Background: Kinase-Glo reads ATP consumption through a luciferase reaction.

A further data set concerns the target T2, ArlS' protein (Staphylococcus epidermidis, UniProt Q5HPC4).
T2 construct: made in house
Briefly: Inhibition of ArlS' autophosphorylation (Kinase-Glo Luminescent Kinase Assay). As to conditions: for Inhibition of ArlS’ phosphorylation / Luminescence: 200 μM derivative, 2 μg purified protein, 4 μM ATP; for inhibitory effect on the autophosphorylation of ArlS': highest concentration 200 μM, result in words. The format is biochemical, S. epidermidis.

Data set [1] relates to S. epidermidis ATCC 35984. The experiment in a line: MIC and MBC tube-dilution assay. In kind it is cell-based. As to conditions: Staphylococcus epidermidis; for MBC: ATCC35984, 99.9% reduction of inoculum; for MIC: ATCC35984, MHB, 16–20 h. The method, then:
(§1) The MIC assays of the derivatives of compound 5 against S. epidermidis, S. aureus, MRSA and E. coli were performed by using the methods described previously by Wiegand et al. ([2008]). In brief, two-fold serial dilutions of the derivatives were prepared in tubes containing 4 mL MHB medium, yielding final concentrations from 200 to 0.78 μM. Bacterial cultures were grown overnight and adjusted so that the bacterial suspension turbidity was equivalent to a 0.5 McFarland standard (~1 × 10^8 CFU/mL) and further diluted to 1:200 into MHB medium. The contents in the tubes were mixed thoroughly and incubated at 37°C with shaking at 220 rpm for 16–20 h. The MIC endpoint was defined as the lowest concentration at which there was no visible growth in the tubes. The MBC values were assessed by plating 100 μL samples from each negative (no visible bacterial growth) culture tube from the MIC assays onto blank MHB agar plates. After incubation at 37°C for 24 h, the bacterial colonies on the plates were counted. The MBC was the concentration at which a 99.9% reduction of the original inoculum was observed (Pridmore et al., [2011]). In this assay, all the experiments were performed three times.

A further data set has as its system E. coli ATCC 25922. The experiment in a line: MIC tube-dilution assay. In kind it is cell-based, Escherichia coli. As to conditions: E. coli ATCC29522 (head), highest concentration used 200 μM. The procedure:
as §1

Data set [2] deals with Enterococcus faecalis OG1RF. The experiment in a line: Standard tube-dilution assay against Enterococcus faecalis. In kind it is cell-based. The settings on record: result in words.
The test system of data set [3] is S. epidermidis ATCC 35984 mature biofilms. The experiment in a line: Cell viability in mature (24 h) biofilms by CLSM with Live/Dead staining. The format is cell-based, Staphylococcus epidermidis. The settings on record: 4 × MIC, 16 h, 24 h mature biofilm; for PI fluorescence quantity (dead cells) / SYTO9 fluorescence quantity (viable cells): Image J. The method, then:
The effect of the derivatives on cell viability in mature biofilms (24 h old) was determined using the Live/Dead Bacterial Viability method (Live/Dead BacLight, Molecular Probes, USA). […] The mature biofilms were stained with SYTO 9 and propidium iodide at room temperature for 15 min, following gentle washing of the dishes with normal saline, and were observed under a Leica TCS SP5 CLSM with a 63 × 1.4-NA oil-immersion objective. Further, image analysis was performed using IMARIS 7.0.0 software (Bitplane). The fluorescence quantities of biofilm were determined using Image J software. This assay was performed in triplicate and similar results were obtained.

The next data set is described as follows: Cytotoxicity MTT assay. The format is cell-based. The settings on record: African green monkey, Vero cells, highest concentration tested 200 μM. The method, then: A Cell Proliferation Kit I (MTT; Roche, Indianapolis, USA) was used to detect the cytotoxicity of the derivatives against Vero cells. Vero cells were added to 96-well microtiter plates at a concentration of 5 × 10^4 cells/well in 100 μL of culture medium. After 24 h, culture medium was replaced by 100 μL serial dilutions of the derivatives (0.78–100 μM) and the cells were incubated for 4 h in an atmosphere of 5% CO2, then 10 μL of the MTT stock solution was added to each well and the plate returned to the 37°C incubator for 4 h. Subsequent to the incubation, the purple formazan salts were dissolved in DMSO, and the absorbance of each well was measured at wavelengths of 595 nm (test) and 655 nm (reference). Cells treated with the solvent (0.1% DMSO) were used as a blank control. The concentration of the derivatives that produced a 50% cytotoxicity effect on Vero cells (CC50) was calculated using Origin v8.0 software (Origin Lab, Northampton, USA).
(In general: Tetrazolium assays rely on reduction of a dye to a coloured formazan, in cell work by metabolically active cells.)

Setting [4] is: Escherichia coli, ATCC 25922 / ATCC 29522.

T2 sequence (Q5HPC4 240-456): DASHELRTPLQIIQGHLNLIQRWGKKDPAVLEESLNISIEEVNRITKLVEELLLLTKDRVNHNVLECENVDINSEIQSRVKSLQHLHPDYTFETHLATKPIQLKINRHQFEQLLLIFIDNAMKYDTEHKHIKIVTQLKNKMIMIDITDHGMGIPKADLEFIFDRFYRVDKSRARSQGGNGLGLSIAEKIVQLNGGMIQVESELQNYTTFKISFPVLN

A word on the IC50: it is the concentration at which inhibition is half-maximal. As a reminder, the MBC is the smallest concentration meeting the test's criterion for killing. Read a low MBC as more potent killing. A word on the MIC: it is the least concentration at which growth counts as inhibited. Low readings indicate greater potency, high ones weaker potency. The term CC50 denotes the concentration at which the toxic effect on the cells reaches its halfway point. High values mean better tolerance by the cells, low ones harm at low concentration. For the compound `CCOC(=O)C1=C(c2ccccc2)N=c2sc(=Cc3ccc(-c4ccc(C(=O)O)cc4)o3)c(=O)n2C1c1ccc(F)cc1` (stereo not shown) [H5-35, 2-[5-(4-carboxy-phenyl)-furan-2-ylmethylene]-5-(4-fluoro-phenyl)-3-oxo-7-phenyl-2,3-dihydro-5H-thiazolo[3,2-a]pyrimidine-6-carboxylic acid ethyl ester], at YycG′ protein, the “inhibition of the enzymatic activity of YycG′ protein” value (from here on “inhibition … of YycG′ protein”) was 63.94% and the IC50 is 78.2 µM. Also, at ArlS' protein, the “Inhibition of ArlS’ phosphorylation” value is -1.5%, the Luminescence is on record as 18075 + 285 RLU and the “inhibitory effect on the autophosphorylation of ArlS'” value (“inhibitory effect” for short) is “None of them showed an inhibitory effect”. In addition, in data set [1], the minimal bactericidal concentration (MBC) came to 12.5 µM (≈ 7.43 µg/mL) and inhibition of growth (MIC) required 3.13 µM (≈ 1.86 µg/mL). In addition, in the data set on E. coli ATCC 25922, the MIC is over 200 µM. Besides, the MIC in the data set with E. coli ATCC 25922 (setting [4]) was over 200 µM. In addition, the anti-bacterial activity entry in data set [2] is “displayed anti-bacterial activities”. In addition, in data set [3], the “PI/Total (reduction of the proportion of viable cells in mature biofilms)” value turned out to be 71.7%, the “PI fluorescence quantity (dead cells)” value came to 41.253 ± 5.31 and the “SYTO9 fluorescence quantity (viable cells)” value (“SYTO9 fluorescence quantity” for short) was determined as 16.283 ± 4.75. In addition, the cytotoxic concentration (CC50) at 4 h in “Cytotoxicity MTT assay” is over 200 µM.

In the case of `O=C(O)c1cccc(-c2ccc(C=c3sc4n(c3=O)C(c3ccc(F)cc3)C=C(c3ccccc3)N=4)o2)c1` (stereo not shown) [H5-33, 3-{5-[5-(4-fluoro-phenyl)-3-oxo-7-phenyl-5H-thiazolo [3,2-a]pyrimidin-2-ylidenemethyl]-furan-2-yl}-benzoic acid], on YycG′ protein, the “inhibition … of YycG′ protein” value came to 77.04% and the IC50 came out at 64.9 µM. Also, on ArlS' protein, the “Inhibition of ArlS’ phosphorylation” value is given as -5.1%, the Luminescence is listed as 17786 + 382 RLU and the “inhibitory effect” value is “None of them showed an inhibitory effect”. In addition, in data set [1], the MBC turned out to be 12.5 µM (≈ 6.53 µg/mL) and the MIC was determined as 3.13 µM (≈ 1.64 µg/mL). In addition, in the data set with E. coli ATCC 25922, the MIC was over 200 µM. The compound further yielded an MIC with E. coli ATCC 25922 (setting [4]) of over 200 µM. Besides, the anti-bacterial activity result in data set [2] is “displayed anti-bacterial activities”. Further, in data set [3], the “PI/Total (reduction of the proportion of viable cells in mature biofilms)” value is reported as 88.4%, the “PI fluorescence quantity (dead cells)” value worked out at 73.684 ± 5.56 and the “SYTO9 fluorescence quantity” value was determined as 9.669 ± 3.64. In “Cytotoxicity MTT assay”, this compound displayed a CC50 at 4 h of over 200 µM.

Take `CCOC(=O)C1=C(c2ccccc2)N=c2sc(=Cc3ccc(-c4cccc(C(=O)O)c4)o3)c(=O)n2C1c1ccc(F)cc1` (stereo not shown) [H5-32, 2-[5-(3-carboxy-phenyl)-furan-2-ylmethylene]-5-(4-fluoro-phenyl)-3-oxo-7-phenyl-2,3-dihydro-5H-thiazolo[3,2-a]pyrimidine-6-carboxylic acid ethyl ester]: on YycG′ protein, the “inhibition … of YycG′ protein” value was 55.61% and the concentration for half-maximal inhibition (IC50) turned out to be 83.9 µM. Moreover, on ArlS' protein, the “Inhibition of ArlS’ phosphorylation” value is recorded as -5.9% and the “inhibitory effect” value is given as “None of them showed an inhibitory effect”. In data set [1], the minimal bactericidal concentration (MBC) came to 100 µM (≈ 59.5 µg/mL) and 3.13 µM (≈ 1.86 µg/mL) was the least that counted as inhibitory (MIC). The MIC in the data set with E. coli ATCC 25922 is reported as over 200 µM. The same compound returned an MIC in the data set with E. coli ATCC 25922 (setting [4]) of over 200 µM. In addition, the anti-bacterial activity entry in data set [2] is on record as “displayed anti-bacterial activities”. Moreover, in data set [3], the “PI/Total (reduction of the proportion of viable cells in mature biofilms)” value turned out to be 66.50%, the “PI fluorescence quantity (dead cells)” value is reported as 40.338 ± 5.03 and the “SYTO9 fluorescence quantity” value is listed as 20.321 ± 4.66. In “Cytotoxicity MTT assay”, this compound registered a CC50 at 4 h of over 200 µM.

For `CCOC(=O)C1=C(c2ccccc2)N=c2sc(=Cc3ccc(-c4ccc(C(=O)O)cc4)o3)c(=O)n2C1c1ccc(Cl)cc1` (stereo not shown) [H5-34, 2-[5-(4-carboxy-phenyl)-furan-2-ylmethylene]-5-(4-chloro-phenyl)-3-oxo-7-phenyl-2,3-dihydro-5H-thiazolo[3,2-a]pyrimidine-6-carboxylic acid ethyl ester], on YycG′ protein, the “inhibition … of YycG′ protein” value is given as 80.72% and the IC50 was 61.9 µM. Also, on ArlS' protein, the “Inhibition of ArlS’ phosphorylation” value is on record as -5.6%, the Luminescence was 17747 + 622 RLU and the “inhibitory effect” value is “None of them showed an inhibitory effect”. Besides, in data set [1], the MBC worked out at 25 µM (≈ 15.3 µg/mL) and the minimum inhibitory concentration (MIC) was 3.13 µM (≈ 1.91 µg/mL). Besides, the minimum inhibitory concentration (MIC) against E. coli ATCC 25922 is listed as over 200 µM. The compound also returned an MIC with E. coli ATCC 25922 (setting [4]) of over 200 µM. The anti-bacterial activity entry in data set [2] is “displayed anti-bacterial activities”. Further, in data set [3], the “PI/Total (reduction of the proportion of viable cells in mature biofilms)” value stood at 38.80%, the “PI fluorescence quantity (dead cells)” value worked out at 39.578 ± 4.74 and the “SYTO9 fluorescence quantity” value was 62.165 ± 6.71. For the same compound, in “Cytotoxicity MTT assay”, the CC50 at 4 h is over 200 µM.
